Key:
[1] = biological target: T1, ALDH16 (monofunctional aldehyde dehydrogenase, GI 150018649, SEQ ID NO: 16; Strep-ALDH16) (Clostridium diolis, UniProt A0AAV3W6M8); test: In vitro kinetics of aldehyde/alcohol dehydrogenases, oxidation of NADH at 340 nm (purified Strep-ALDH16); format: biochemical
T1 sequence (A0AAV3W6M8 1-468): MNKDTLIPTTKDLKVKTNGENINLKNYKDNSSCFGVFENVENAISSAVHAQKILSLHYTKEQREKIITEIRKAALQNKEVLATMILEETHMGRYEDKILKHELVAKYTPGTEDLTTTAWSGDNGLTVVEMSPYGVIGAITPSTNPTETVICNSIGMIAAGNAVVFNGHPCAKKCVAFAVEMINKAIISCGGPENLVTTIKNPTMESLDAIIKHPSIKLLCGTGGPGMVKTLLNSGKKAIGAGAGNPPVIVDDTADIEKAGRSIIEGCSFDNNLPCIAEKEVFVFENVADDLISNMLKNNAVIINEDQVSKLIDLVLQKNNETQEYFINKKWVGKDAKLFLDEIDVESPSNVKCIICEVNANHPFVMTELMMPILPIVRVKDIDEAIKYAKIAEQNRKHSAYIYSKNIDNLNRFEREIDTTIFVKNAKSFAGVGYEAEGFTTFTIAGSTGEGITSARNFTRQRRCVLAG
Protocol: (§1) Activity of ALDH proteins was measured by monitoring the oxidation of NADH at 340 nm at 30° C. The assay mixture (400 μL) contained 100 μM NADH in 100 mM Tris 1 mM DTT pH 7.5. The reaction was initiated by the addition of substrate. Kinetic parameters (kcat, KM) were determined by fitting the data using Microcal Origin to the equation: vo=vmax [S]/(KM+[S]), where v is the initial rate and [S] is the substrate concentration. Data are reported as mean±s.e. (n=3) unless otherwise noted with standard error derived from the nonlinear curve fitting. Error bars on graphs represent mean±s.d. (n=3). Error in kcat/KM is calculated by propagation of error from the individual kinetic parameters.
(§2) To further explore the potential for expressing monofunctional aldehyde and alcohol dehydrogenases in host cells for the production of alcohols, various aldehyde and alcohol dehydrogenases were purified and isolated to investigate their in vitro kinetic behavior with various C4 and C2 substrates. In particular, the monofunctional aldehyde dehydrogenase identified in FIG. 3 above (GI 150018649, also referred to as ALDH16) was purified (FIG. 4A and FIG. 4B) and the in vitro kinetic behavior of a purified Strep-ALDH16 protein with various C4 and C2 substrates was tested.

[2] = biological target: T2, AdhE2-ALDH (aldehyde dehydrogenase domain of bifunctional AdhE2, wild type, GI 499193180, SEQ ID NO: 41) (Clostridium acetobutylicum, UniProt Q9ANR5); test: In vitro kinetics of aldehyde/alcohol dehydrogenases, oxidation of NADH at 340 nm (aldehyde dehydrogenase domain of AdhE2)
T2 sequence (Q9ANR5 1-858): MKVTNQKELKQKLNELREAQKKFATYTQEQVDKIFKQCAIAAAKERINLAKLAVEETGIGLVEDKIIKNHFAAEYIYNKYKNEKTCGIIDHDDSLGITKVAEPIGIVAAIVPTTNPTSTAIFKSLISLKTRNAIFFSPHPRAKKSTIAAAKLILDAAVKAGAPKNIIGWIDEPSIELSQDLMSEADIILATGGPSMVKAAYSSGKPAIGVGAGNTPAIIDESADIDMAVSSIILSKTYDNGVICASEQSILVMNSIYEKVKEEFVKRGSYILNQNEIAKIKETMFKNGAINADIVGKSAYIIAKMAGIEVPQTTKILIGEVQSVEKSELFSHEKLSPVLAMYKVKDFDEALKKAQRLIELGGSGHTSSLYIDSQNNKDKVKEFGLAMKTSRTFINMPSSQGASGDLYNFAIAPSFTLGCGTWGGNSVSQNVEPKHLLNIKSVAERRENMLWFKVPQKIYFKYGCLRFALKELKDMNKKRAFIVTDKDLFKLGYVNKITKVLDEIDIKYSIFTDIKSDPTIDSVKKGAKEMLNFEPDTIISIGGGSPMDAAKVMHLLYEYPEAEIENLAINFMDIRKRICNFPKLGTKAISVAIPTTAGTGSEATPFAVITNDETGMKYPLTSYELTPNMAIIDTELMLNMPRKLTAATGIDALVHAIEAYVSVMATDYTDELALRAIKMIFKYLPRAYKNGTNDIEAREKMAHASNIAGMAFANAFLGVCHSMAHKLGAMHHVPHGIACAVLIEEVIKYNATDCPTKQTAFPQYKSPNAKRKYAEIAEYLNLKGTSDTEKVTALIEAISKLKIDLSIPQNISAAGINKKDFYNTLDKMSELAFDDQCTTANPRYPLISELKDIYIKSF

[3] = biological target: T3, AdhE2-ADH (alcohol dehydrogenase domain of bifunctional AdhE2, wild type, GI 499193180, SEQ ID NO: 41) (Clostridium acetobutylicum, UniProt Q9ANR5); test: In vitro kinetics of aldehyde/alcohol dehydrogenases, oxidation of NADH at 340 nm (alcohol dehydrogenase domain of AdhE2); format: biochemical
T3 construct: alcohol dehydrogenase activity (C-terminal domain) measured
T3 sequence (Q9ANR5 1-858): T2 sequence (Q9ANR5 1-858)
Protocol: as §1, §2

[4] = substrate: CC=O; test: as above; format: biochemical; details: other: 100 μM NADH, 100 mM Tris, 1 mM DTT, pH 7.5, 30° C., mean±s.e. (n=3)
Protocol: as §1, §2

[5] = substrate: CCCC=O; test: as above; format: biochemical; details: other: 100 μM NADH, 100 mM Tris, 1 mM DTT, pH 7.5, 30° C., mean±s.e. (n=3)
Protocol: as §1, §2

[6] = tested on: butanol production pathway; test: Butanol and ethanol production in E. coli MC1.24 (quintuple KO) with bifunctional or monofunctional dehydrogenases (FIG. 5); format: cell-based; details: E. coli MC1.24, FIG. 5
From the text: FIG. 5 illustrates genetically engineered improvement of a butanol production pathway composed of monofunctional aldehyde and alcohol dehydrogenases. The fuel titer of either butanol or ethanol in E. coli cells expressing the biosynthetic pathway shown in FIG. 6A with various particular alcohol and/or aldehyde dehydrogenases is shown. Specifically, E. coli MC1.24 (quintuple KO) was transformed with pT533-phaA.HBD, pBBR2-aceE.F.lpd and 1: pCWO.trc-ter-adhE2, 2: pCDF3-aldh16, 3: pCWori-ter-aldh16.CaADH, or 4: pCWO.trc-ter-aldh16.CaADH as indicated.
. The cultures were grown at 37° C. in a rotary shaker (200 r.p.m.) and induced with IPTG (1.0 mM) at OD600=0.35-0.45. At this time, the growth temperature was reduced to 30° C., and the culture flasks were sealed with Parafilm M (Pechiney Plastic Packaging) to prevent product evaporation for aerobic cultures. Anaerobic cultures were sealed and the headspace was sparged with argon for 5 minutes immediately follow induction. Aerobic cultures were unsealed for 10 to 30 min every 24 h then resealed with Parafilm M, and additional glucose (1% (w/v)) was added 1 day post-induction. Samples were quantified after 3 d of cell culture.
Samples (2 ml) were removed from cell culture and cleared of biomass by centrifugation at 20,817 g for 2 min using an Eppendorf 5417R centrifuge. The supernatant or cleared medium sample was then mixed in a 9:1 ratio with an aqueous solution containing the isobutanol internal standard (10,000 mg l^−1). These samples were then analyzed on a Trace GC Ultra (Thermo Scientific) using an HP-5MS column (0.25 mm×30 m, 0.25 μM film thickness, J & W Scientific). The oven program was as follows: 75° C. for 3 min, ramp to 300° C. at 45° C. min^−1, 300° C. for 1 min. n-Butanol was quantified by flame ionization detection (FID) (flow: 350 ml min^−1 air, 35 ml min^−1 H2 and 30 ml min^−1 helium). Samples containing n-butanol levels below 500 mg 1^−1 were requantified after extraction of the cleared medium sample or standard (500 μl) with toluene (500 μl) containing the isobutanol internal standard (100 mg 1^−1) using a Digital Vortex Mixer (Fisher) for 5 min set at 2,000. The organic layer was then quantified using the same GC parameters with a DSQII single-quadrupole mass spectrometer (Thermo Scientific) using single-ion monitoring (m/z 41 and 56) concurrent with full scan mode (m/z 35-80). Samples were quantified relative to a standard curve of 2, 4, 8, 16, 31, 63, 125, 250, 500 mg 1^−1 n-butanol for MS detection or 125, 250, 500, 1,000, 2,000, 4,000, 8,000 mg 1^−1 n-butanol for FID detection. Standard curves were prepared freshly during each run and normalized for injection volume using the internal isobutanol standard (100 or 1,000 mg 1^−1 for MS and FID, respectively). […]

[7] = 100 μM NADH, 100 mM Tris, 1 mM DTT, pH 7.5, 30° C., mean±s.e. (n=3)

## CC(=O)SCCNC(=O)CCNC(=O)[C@H](O)C(C)(C)COP(=O)(O)OP(=O)(O)OC[C@H]1O[C@@H](n2cnc3c(N)ncnc32)[C@H](O)[C@@H]1OP(=O)(O)O [acetyl-CoA]
[1]; compared with ALDH domain of AdhE2
  higher KM for acetyl-CoA: 5 fold

## CCCC(=O)SCCNC(=O)CCNC(=O)[C@H](O)C(C)(C)COP(=O)(O)OP(=O)(O)OC[C@H]1O[C@@H](n2cnc3c(N)ncnc32)[C@H](O)[C@@H]1OP(=O)(O)O [butyryl-CoA]
[1]; [7]
  kcat: 0.11 ± 0.01 s⁻¹
[1]; from Table 4
  preference (specificity) for butyryl-CoA over acetyl-CoA: 73 fold
[2]; [7]
  kcat: 1.2 ± 0.1 s⁻¹
[2]; from Table 4
  preference for butyryl-CoA over acetyl-CoA: 8.5 fold

## CC=O [acetaldehyde]
[3]; [7]
  kcat: 5.6 ± 0.1 s⁻¹
[3]; from Table 4
  preference for acetaldehyde over butyraldehyde: 1.7 fold

B1: AdhE2-ADH (alcohol dehydrogenase domain of bifunctional AdhE2, wild type, GI 499193180, SEQ ID NO: 41) (Clostridium acetobutylicum) (protein)
chain: T2 sequence (Q9ANR5 1-858)
notes: alcohol dehydrogenase activity (C-terminal domain) measured
[4]
  Km: 4.5 ± 0.3 mM
[5]
  Km: 4 ± 0.4 mM
  kcat: 2.9 ± 0.1 s⁻¹
  kcat/Km: 700 ± 20 M⁻¹ s⁻¹

B2: AdhE2: bifunctional alcohol and aldehyde dehydrogenase, wild-type AdhE2 (protein, listed as Clostridium acetobutylicum)
chain: T2 sequence (Q9ANR5 1-858)
[6]
  butanol production: 4.5 g/L
  ethanol production: 3 g/L

Reference: patent publication US20180291353A1, “MONOFUNCTIONAL ALDEHYDE AND ALCOHOL DEHYDROGENASES FOR PRODUCTION OF FUELS AND COMMODITY CHEMICALS” (The Regents of the University of California, priority 2015, published 2018)
